Earlier results in patent US20220257541A1, “Lacosamide for the Treatment of ADD/ADHD” (priority 2019, published 2022).

Legend:
[1] = tested on: children who take methylphenidate; details: cited from earlier work
[2] = tested on: voltage-gated sodium channels; details: cited from earlier work

SMILES | proportion of children who develop symptoms of obsessive-compulsive behaviour [1] | mechanism of action [2]
COC(=O)C(c1ccccc1)C1CCCCN1 (centres unmarked) [methylphenidate] | one third | 
NC(=O)c1cn(Cc2c(F)cccc2F)nn1 [rufinamide, 1-[(2,6-difluorophenyl)methyl]-1H-1,2,3-triazole-4 carboxamide] |  | act through voltage-gated sodium channels
